“And” between values parts separate entries of the source, which are not always exact repeats. Identical values can stand only once. ± gives the expanded uncertainty stated by the source.
What was measured:
[1] = 101.33 kPa, Liquid
[2] = refractive index (Na D-line) (dimensionless); conditions: 101.33 kPa, Liquid

Compound | mass density ([1]; 298.15 K) | speed of sound ([1]; 298.15 K) | viscosity ([1]; 298.15 K) | mass density ([1]; 303.15 K) | viscosity ([1]; 303.15 K) | mass density ([1]; 308.15 K) | viscosity ([1]; 308.15 K) | refractive index ([2]; 298.15 K) | refractive index ([2]; 303.15 K) | refractive index ([2]; 308.15 K)
CCCCN(CCCC)CCCC [tributylamine] | 773.9 ± 0.8 kg/m3 and 773.3 ± 0.8 kg/m3 | 1262 ± 6 m/s | 1.239 ± 0.03 mPa·s | 769.2 ± 0.8 kg/m3 | 1.123 ± 0.028 mPa·s and 1.124 ± 0.028 mPa·s | 765.7 ± 0.9 kg/m3 | 1.028 ± 0.026 mPa·s and 1.02 ± 0.026 mPa·s and 1.103 ± 0.11 mPa·s | 1.4276 ± 0.0013 | 1.4255 ± 0.0013 and 1.4254 ± 0.0013 | 1.4228 ± 0.0013
ClC=C(Cl)Cl [trichloroethene] | 1456.7 ± 1.6 kg/m3 | 1028 ± 5 m/s | 0.595 ± 0.016 mPa·s | 1447.1 ± 1.6 kg/m3 | 0.571 ± 0.016 mPa·s | 1439.5 ± 1.7 kg/m3 | 0.549 ± 0.015 mPa·s | 1.4752 ± 0.0012 | 1.4722 ± 0.0012 | 1.469 ± 0.0012
CCN(CC)CC [triethylamine] | 723.3 ± 0.7 kg/m3 | 1123 ± 5 m/s | 0.367 ± 0.011 mPa·s | 718.6 ± 0.7 kg/m3 | 0.349 ± 0.011 mPa·s | 713.7 ± 0.7 kg/m3 | 0.332 ± 0.01 mPa·s | 1.3992 ± 0.0012 | 1.3958 ± 0.0012 | 1.3929 ± 0.0012

From the NIST ThermoML archive (doi:10.1021/je030147g)
